Measurements: US20250134863A1, “MEDICAL AGENT FOR TREATING OR SUPPRESSING PROGRESSION OF AMYOTROPHIC LATERAL SCLEROSIS” (MITSUBISHI TANABE PHARMA CORPORATION, priority 2022, published 2025)
Where “and” joins values, the source holds several entries; their conditions need not be identical. Equal values may be shown once.

Legend:
Format in all cases: in vivo, human
ALS patients [1] = experiment: Propensity score matching cohort evaluation, EE group vs PRO-ACT placebo, ALSFRS-R total score
Protocol: In a sensitivity analysis, propensity score matching cohort evaluation was conducted to compare the baseline changes in ALSFRS-R total score at 48 weeks between the EE group from the 16 trial, the 17 trial, and the 19 trial, and a matching cohort from the Pooled Resource Open-Access ALS Clinical Trials Database (hereinafter PRO-ACT) database. The EE group and PRO-ACT placebo group were matched 1:1 using a caliper width of 0.2 of the log it of the propensity score. The propensity score was developed using baseline confounding factors and ALS progression variables (gender, body weight, age, duration of ALS disease, ALSFRS-R total score baseline, uric acid baseline) of the EE group. A balance after the matching was evaluated using a standardized mean difference of less than 0.1 (Reference 6: J Clin Epidemiol 2001; 54 (4): 387-398). The propensity score was added as an explanatory variable for the MMRM analysis. Further, a subgroup analysis of uric acid levels was performed using MMRM analysis within the matching cohort, and the change from baseline in the ALSFRS-R total score at 48 weeks was compared between the EE group and the PRO-ACT placebo group.

ALS patients [2] = experiment: Post-hoc statistical analysis 2: uric acid levels from baseline to cycle 12 (16, 17 and 19 trials)
Source text: (§1) After a 12-week observation period, patients whose ALSFRS-R total score decreased by 1 to 4 points during that period were considered eligible for the trial. In the 16 trial, eligible patients were randomly divided into an edaravone treatment group and a placebo administration group, and patients in each group received administration for 24 weeks (cycles 1 to 6). After completing the 24-week double-blind portion of the 16 trial, patients who received edaravone (E) were randomly assigned to the 17 trial, and during a 24-week double-blind extension period (cycles 7 to 12), edaravone treatment (EE group) or placebo administration (EP group) was performed. On the other hand, all patients from the placebo (P) administration group received edaravone treatment (PE group). All patients received open-label edaravone treatment for the next 12 weeks (cycles 13 to 15).
(§2) Edaravone was administered at a dose of 60 mg by intravenous infusion over 60 minutes, once daily. The infusion was given for 14 days in the first treatment cycle, and for 10 days out of the 14-day treatment period in all subsequent cycles. A 14-day drug holiday period was provided after each treatment cycle.
(§3) Similar to the 16 trial, after a 12-week observation period, patients in the 19 trial were randomly divided into an edaravone treatment group and a placebo administration group, and patients in each group received administration for 24 weeks (cycles 1 to 6). In the 19 trial, after the double-blind treatment period, all patients received open-label edaravone treatment for an additional 24 weeks (cycles 7 to 12). Therefore, the 19 trial included an EE group and a PE group.
The blood uric acid levels in the 16 trial, 17 trial, and 19 trial were measured values obtained using the uricase-peroxidase method.
In order to characterize the uric acid level and ALSFRS-R total score profiles at cycle 12, efficacy was analyzed in randomized ALS patients at the start of cycle 7 and randomized ALS patients who received the medical agent at least once after the start of cycle 7.
Descriptive statistics (number of subjects, mean, standard deviation, minimum, maximum) were used to summarize the changes in uric acid levels (mg/dL) and ALSFRS-R total scores from baseline to cycle 12 for the entire population and for the Edaravone treatment group as a subgroup defined by the median baseline uric acid level (4.8 mg/dL). The median baseline uric acid level for all patients (4.8 mg/dL) was derived using the entire edaravone population, including the EE, PE, and EP groups in the 16 trial, the 17 trial, and the 19 trial.

ALS patients [3] = experiment: Post-hoc statistical analysis 1: percent change in ALSFRS-R slope on transition from placebo to edaravone (16, 17 and 19 trials); conditions: for Percentage change in ALSFRS-R slope, Median: Wilcoxon p=0.0433
Source text: as §1, §2, §3
In the present analysis, efficacy was analyzed for placebo patients who had completed the 24-week double-blind period (cycles 1 to 6) and had at least one data point in cycle 7. To estimate the percent change in ALSFRS-R slope for transition from placebo administration (baseline to 24 weeks) to edaravone administration (24 weeks 24 to 48 weeks), a random coefficient model was applied to all available ALSFRS-R score data during this period.
A 25% improvement group meets both of the following criteria:
(1) ALSFRS-R slope % change ≥+25% (this change is defined as a clinically significant improvement (Reference 5: Amyotroph Lateral Scler 2010; 11 (1-2): 178-180)) and (2) ALSFRS-R total score at the start of cycle 7 (24 weeks)>24 points (half of the 48-point ALSFRS-R total score) (this helps avoid floor effects related to the ALSFRS-R total score that could lead to false positives in the analysis).
These criteria were used to define a 25% improvement group and a non-25% improvement group. Using a mixed model for repeated measures, the changes in uric acid levels from the start of cycle 7 (24 weeks) to cycle 12 (48 weeks) were summarized for the 25% improvement group and the non-25% improvement group. The correlation between the change in uric acid levels from 24 weeks to 48 weeks and the ALSFRS-R slope percent change was descriptively summarized using the Wilcoxon test.

[4] = uric acid level baseline <4.8 mg/dL
[5] = uric acid level baseline ≥4.8 mg/dL
[6] = Subgroup with uric acid level baseline <4.8 mg/dL, EE group
[7] = Subgroup with uric acid level baseline <4.8 mg/dL, EP group
[8] = Subgroup with uric acid level baseline <4.8 mg/dL, PE group
[9] = Subgroup with uric acid level baseline ≥4.8 mg/dL, EE group
[10] = Subgroup with uric acid level baseline ≥4.8 mg/dL, EP group
[11] = Subgroup with uric acid level baseline ≥4.8 mg/dL, PE group
[12] = entire placebo-edaravone treatment population

## CC1=NN(c2ccccc2)C(=O)C1 [edaravone, 3-methyl-1-phenyl-2-pyrazolin-5-one]
ALS patients [1]; Overall
  ALSFRS-R total score at Cycle 12, Mean (SD): 32.8 (7.79) points
  ALSFRS-R total score change from baseline to cycle 12, LS Mean (SE): −8.7±0.53 points
  ALSFRS-R total score change from baseline to cycle 12, Mean (SD): −8.2 (6.16) points
ALS patients [1]; Overall, 95% CI [0.71, 3.72], p=0.0041
  ALSFRS-R total score change from baseline to cycle 12, LSMD vs placebo PRO-ACT (SE): 2.21±0.77 points
ALS patients [1]; Overall, listed as Edaravone
  ALSFRS-R total score change from baseline to cycle 12, LS Mean (SE): −8.7 (0.53) points
ALS patients [1]; [4]
  ALSFRS-R total score at Cycle 12, Mean (SD): 31.3 (8.79) points
  ALSFRS-R total score change from baseline to cycle 12, LS Mean (SE): −10.3 (0.74) points
  ALSFRS-R total score change from baseline to cycle 12, Mean (SD): −9.6 (7.52) points
ALS patients [1]; [5]
  ALSFRS-R total score at Cycle 12, Mean (SD): 34.0 (6.75) points
  ALSFRS-R total score change from baseline to cycle 12, LS Mean (SE): −7.3 (0.73) points
  ALSFRS-R total score change from baseline to cycle 12, Mean (SD): −7.1 (4.58) points
ALS patients [2]; Overall, EE group
  Uric acid level change from BL to cycle 12, Mean (SD): -0.25 mg/dL
ALS patients [2]; Overall, EE group, listed as Edaravone
  Uric acid level change from BL to cycle 12, Mean (SD): −0.25 (0.86) mg/dL
ALS patients [2]; Overall, EP group
  Uric acid level change from BL to cycle 12, Mean (SD): -0.22 mg/dL
ALS patients [2]; Overall, EP group, listed as Edaravone
  Uric acid level change from BL to cycle 12, Mean (SD): −0.22 (0.77) mg/dL
ALS patients [2]; Overall, Edaravone-Edaravone (EE) group
  Uric acid level at Cycle 12, Mean (SD): 4.4 (1.36) mg/dL
ALS patients [2]; Overall, Edaravone-Placebo (EP) group
  Uric acid level at Cycle 12, Mean (SD): 4.9 (1.20) mg/dL
ALS patients [2]; Overall, PE group
  Uric acid level change from BL to cycle 12, Mean (SD): -0.37 mg/dL
ALS patients [2]; Overall, PE group, listed as Edaravone
  Uric acid level change from BL to cycle 12, Mean (SD): −0.37 (0.86) mg/dL
ALS patients [2]; Overall, Placebo-Edaravone (PE) group
  Uric acid level at Cycle 12, Mean (SD): 4.5 (1.32) mg/dL
ALS patients [2]; [6]
  Uric acid level at Cycle 12, Mean (SD): 3.6 (0.85) mg/dL
  Uric acid level change from BL to cycle 12, Mean (SD): −0.10 (0.69) mg/dL
ALS patients [2]; [7]
  Uric acid level at Cycle 12, Mean (SD): 4.1 (0.93) mg/dL
  Uric acid level change from BL to cycle 12, Mean (SD): 0.15 (0.64) mg/dL
ALS patients [2]; [8]
  Uric acid level at Cycle 12, Mean (SD): 3.6 (0.95) mg/dL
  Uric acid level change from BL to cycle 12, Mean (SD): 0.00 (0.71) mg/dL
ALS patients [2]; [9]
  Uric acid level at Cycle 12, Mean (SD): 5.4 (1.21) mg/dL
  Uric acid level change from BL to cycle 12, Mean (SD): -0.4 mg/dL
ALS patients [2]; Subgroup with uric acid level baseline ≥4.8 mg/dL, EE group, listed as Edaravone
  Uric acid level change from BL to cycle 12, Mean (SD): −0.41 (1.01) mg/dL
ALS patients [2]; [10]
  Uric acid level at Cycle 12, Mean (SD): 5.5 (1.04) mg/dL
  Uric acid level change from BL to cycle 12, Mean (SD): -0.48 mg/dL
ALS patients [2]; Subgroup with uric acid level baseline ≥4.8 mg/dL, EP group, listed as Edaravone
  Uric acid level change from BL to cycle 12, Mean (SD): −0.48 (0.77) mg/dL
ALS patients [2]; [11]
  Uric acid level at Cycle 12, Mean (SD): 5.2 (1.17) mg/dL
  Uric acid level change from BL to cycle 12, Mean (SD): -0.68 mg/dL
ALS patients [2]; Subgroup with uric acid level baseline ≥4.8 mg/dL, PE group, listed as Edaravone
  Uric acid level change from BL to cycle 12, Mean (SD): −0.68 (0.86) mg/dL
ALS patients [3]; ALS severity grade 3
  proportion of patients showing improvement in ALSFRS-R slope: 64.3%
  proportion of patients with at least a 25% improvement in ALSFRS-R slope, cutoff of 24 points: 35.7%
ALS patients [3]; ALS severity grade 4
  proportion of patients showing improvement in ALSFRS-R slope: 66.7%
  proportion of patients with at least a 25% improvement in ALSFRS-R slope, cutoff of 24 points: 33.3%
ALS patients [3]; ALS severity of grade 3 or 4 at the start of cycle 7, about one-third
  patients with 25% improvement in ALSFRS-R slope of edaravone compared to placebo: 21/60
ALS patients [3]; change in uric acid level >0 (n=41)
  Percentage change in ALSFRS-R slope, Median: 14%
ALS patients [3]; change in uric acid level >0 from start of cycle 7 to last administration of cycle 12 (n=41)
  Percentage change in ALSFRS-R slope, Mean (SD): −64 (199) %
ALS patients [3]; change in uric acid level ≤0 (n=105)
  Percentage change in ALSFRS-R slope, Median: −38%
ALS patients [3]; change in uric acid level ≤0 from start of cycle 7 to last administration of cycle 12 (n=105)
  Percentage change in ALSFRS-R slope, Mean (SD): −201 (664) %
ALS patients [3]; [12]
  proportion of patients showing improvement in ALSFRS-R slope upon transition from placebo to edaravone treatment: 43.2% and 43%
  proportion of patients with at least a 25% improvement in ALSFRS-R slope, cutoff of 24 points: 24%
